US5519116A, “Peptides representing permutations of the mastoparan sequence” (Enichem S.p.A., priority 1991, dated 1996)
Peptide text beside a SMILES is read from it.

Columns and labels:
[1] = biological target: T1, rGOα (recombined Goα protein) (Rattus norvegicus, UniProt P59215); assay: GTPase activity assay: GTP hydrolyzed by rGOα reconstituted into phospholipid blisters; assay type: biochemical; details: for inhibition at 1000 µM: 1 mM concentration of peptide, read-out: inhibition of hydrolysis of GTP by rGOα; for IC50: inhibition of basal GTPase activity of rGOα, read-out: IC 50 (concentration necessary to achieve 50% inhibition); for EC50: stimulation of rGOα GTPase activity, read-out: concentration giving 50 % of maximum stimulation
T1 construct: made in house; host or cells: E. coli (plasmid pT7-7)
T1 sequence (P59215 13-354): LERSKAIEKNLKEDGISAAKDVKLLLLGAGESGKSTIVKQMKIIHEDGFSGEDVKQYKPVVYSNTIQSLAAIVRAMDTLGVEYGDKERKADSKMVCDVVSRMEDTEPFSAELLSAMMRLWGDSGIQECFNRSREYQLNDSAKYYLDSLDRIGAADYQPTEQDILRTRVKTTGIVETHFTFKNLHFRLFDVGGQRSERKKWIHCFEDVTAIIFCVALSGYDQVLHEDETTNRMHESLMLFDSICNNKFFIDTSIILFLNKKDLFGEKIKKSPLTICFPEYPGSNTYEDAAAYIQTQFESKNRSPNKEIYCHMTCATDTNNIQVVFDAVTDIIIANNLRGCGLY
Procedure: The activity of the peptides was determined by evaluating the quantity of GTP hydrolyzed in the presence of a recombined Goα protein, using the procedures published by Brandt et al., (1983), Biochemistry, 22, 4357-4362 and by Higashijima et al., (1987), J. Biol. Chem., 262, 757-761.
The rGOα was produced by the authors of the present invention by expression in E.coli of the cDNA of the α subunit of the Go protein present in the rat's brain, inserted in register in the bacterial plasmid pt7-7 (Tabor et al., 1985, Proc. Natl. Acad. Sci. USA, 82, 1074-1078).
Compared with natural GOα, rGOα has an N-terminal deletion of 11 amino acids, replaced by another 5 different amino acids because of the cloning strategy adopted. The molecular weight of rGOα is 38.6 Kd.
When the rGOα is reconstituted into phospholipid blisters (by incubation with a phospholipid mixture at 4° C. for 16 hours), its basal GTPase activity reduces to 0.02 min^-1, This experimental condition which approaches that of the natural protein, in the inactivity state, inserted into the cell membrane was chosen to evaluate the effect of the peptides on the hydrolysis of GTP by rGOα.
5 volumes of a solution of rGOα in 50 mM Hepes, pH 8, 1 mM EDTA, 1 mM DTT and 0.02% of Lubrol (HEDL) were mixed with 1 volume of the same buffer containing 0.84% of sodium cholate, 0.05% of dimyristoyl-L-α-phosphatidylcholine, 0.05% of phosphatidylethanolamine from bovine brain and 0.067% of phosphatidyl-serine from bovine brain (as described by Mousli et al., 1990, Immunol. Lett., 25, 355-358) and preincubated at 4° C. overnight.
An aliquot of 32 μl of this solution was incubated at 20° C. for 5 min in a final volume of 50 μl of HEDL containing 1.1 mM MgCl2 and 0.4 μM (γ^-32 p) GTP (10000-30000 cpm/pmol) and the respective peptide at the final concentrations indicated.
The reactions were terminated by adding 750 μl of a 5% suspension of vegetable charcoal in 20 mM phosphoric acid. After agitation and centrifuging, 400 μl of supernatant containing the radioactive phosphate were counted by liquid scintillation.

rGOα = assay: GTPγS binding to rGOα to saturation; parameters: species or system rat; details: at 20°

Row | SMILES | inhibition at 1000 µM [1] [%] | IC50 [1] [µM] | other results
1 | CC[C@H](C)[C@H](NC(=O)[C@H](C)NC(=O)[C@H](CCCCN)NC(=O)[C@H](CC(C)C)NC(=O)[C@H](CCCCN)NC(=O)[C@H](C)NC(=O)[C@H](CC(N)=O)NC(=O)[C@@H](N)CC(C)C)C(=O)N[C@@H](C)C(=O)N[C@@H](CC(C)C)C(=O)N[C@@H](C)C(=O)N[C@@H](CC(C)C)C(=O)N[C@H](C(=O)N[C@@H](CCCCN)C(=O)O)[C@@H](C)CC [peptide 7] (H-LNAKLKAIALALIK-OH) | 63 | 600 | –
2 | Nc1nc2c(ncn2[C@@H]2O[C@H](COP(=O)(O)OP(=O)(O)OP(O)(O)=S)[C@@H](O)[C@H]2O)c(=O)[nH]1 [GTPγ S] | – | – | Kd (rGOα): 0.0029 µM
3 | CC[C@H](C)[C@H](NC(=O)[C@H](CC(C)C)NC(=O)[C@H](C)NC(=O)[C@H](CCCCN)NC(=O)[C@H](CC(C)C)NC(=O)[C@H](CC(N)=O)NC(=O)[C@H](CC(C)C)NC(=O)[C@H](C)NC(=O)[C@@H](NC(=O)[C@H](CCCCN)NC(=O)[C@@H](N)CC(C)C)[C@@H](C)CC)C(=O)N[C@@H](C)C(=O)N[C@@H](C)C(=O)N[C@@H](CCCCN)C(=O)O [compound 2] (H-LKIALNLKALIAAK-OH) | > 90 | 130 | –
4 | CC[C@H](C)[C@H](N)C(=O)N[C@@H](CC(N)=O)C(=O)N[C@@H](CC(C)C)C(=O)N[C@@H](CCCCN)C(=O)N[C@@H](C)C(=O)N[C@@H](CC(C)C)C(=O)N[C@@H](C)C(=O)N[C@@H](C)C(=O)N[C@@H](CC(C)C)C(=O)N[C@@H](C)C(=O)N[C@@H](CCCCN)C(=O)N[C@@H](CCCCN)C(=O)N[C@H](C(=O)N[C@@H](CC(C)C)C(N)=O)[C@@H](C)CC [Mastoparan, mastoparan] | – | – | increase of GTP hydrolysis ([1]; 1 mM of peptide (no additional effect beyond this concentration), 20° C., 5 min): 5 times; effect on the GTPase activity of rGOα (capacity to activate the protein rGoα) ([1]; summary in words): stimulate the GTPase activity of rGOα in a manner dependent on the concentration
5 | CC[C@H](C)[C@H](NC(=O)[C@H](CC(C)C)NC(=O)[C@H](C)NC(=O)[C@H](CCCCN)NC(=O)[C@H](C)NC(=O)[C@H](CC(C)C)NC(=O)[C@H](C)NC(=O)[C@H](CC(C)C)NC(=O)[C@@H](NC(=O)[C@@H](N)CC(N)=O)[C@@H](C)CC)C(=O)N[C@@H](CCCCN)C(=O)N[C@@H](C)C(=O)N[C@@H](CC(C)C)C(=O)N[C@@H](CCCCN)C(=O)O [peptide 8] (H-NILALAKALIKALK-OH) | – | – | EC50 ([1]; 20° C., 5 min): 250 µM
6 | CC[C@H](C)[C@H](NC(=O)[C@H](C)NC(=O)[C@H](CC(C)C)NC(=O)[C@H](C)N)C(=O)N[C@@H](CCCCN)C(=O)N[C@@H](CC(C)C)C(=O)N[C@H](C(=O)N[C@@H](CC(C)C)C(=O)N[C@@H](CC(N)=O)C(=O)N[C@@H](CC(C)C)C(=O)N[C@@H](CCCCN)C(=O)N[C@@H](C)C(=O)N[C@@H](CCCCN)C(=O)N[C@@H](C)C(=O)O)[C@@H](C)CC [peptide 1] (H-ALAIKLILNLKAKA-OH) | 75 | 215 | –
7 | CC[C@H](C)[C@H](N)C(=O)N[C@@H](CC(N)=O)C(=O)N[C@@H](CC(C)C)C(=O)N[C@@H](C)C(=O)N[C@@H](C)C(=O)N[C@@H](CC(C)C)C(=O)N[C@@H](CCCCN)C(=O)N[C@@H](CCCCN)C(=O)N[C@@H](CC(C)C)C(=O)N[C@@H](C)C(=O)N[C@@H](C)C(=O)N[C@@H](CCCCN)C(=O)N[C@H](C(=O)N[C@@H](CC(C)C)C(=O)O)[C@@H](C)CC [peptide 4] (H-INLAALKKLAAKIL-OH) | – | – | EC50 ([1]; 20° C., 5 min): 500 µM
